The values that follow come from ChEMBL document CHEMBL1201862, “PubChem BioAssay data set” (2004).

The term IC50 denotes the point on the concentration scale where inhibition reaches its midpoint. The Ki is a dissociation constant, usually derived from enzyme kinetics or from competition with a known ligand. For orientation: AC50 means the concentration at which the activity in the assay is half-maximal.

One experiment concerns the target Protein Wnt-3a (Mus musculus, UniProt P27467). The experiment in a line: SAR analysis of small molecule antagonists of Gli-SUFU in a Wnt3a luminescent reporter assay. In kind it is functional.
For another experiment, the target named is fMet-Leu-Phe receptor (Homo sapiens, UniProt P21462). The experiment is described as follows: FPR ligands, dose response (AID 519). In kind it is functional.
A short description of experiment [1]: A549 cell cytotoxicity, dose response, cytotoxicity control, cherry-picks, 26 µM top dose (AID 1053119). In kind it is functional, cell-based.
The nature of experiment [2]: HepG2 cell cytotoxicity, dose response, cytotoxicity control, cherry-picks, set 5 (AID 1053118). In kind it is functional, cell-based.
The nature of experiment [3]: LGR2 antagonists, dose response, cell-based, HEK293, CRE-luciferase reporter, cherry pick, set 2 (AID 743343).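 Note: transfected cells were stimulated with diluted bursicon conditioned medium after compound addition.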 In kind it is functional. (In general: A reporter such as luciferase makes a cellular process visible.)
Experiment [4] is described as follows: HEK293 cell cytotoxicity, dose response, cytotoxicity control, cherry-picks, set 5 (AID 1053117). In kind it is functional, cell-based.
The nature of experiment [5]: MC4R antagonists, dose response, counter-screen for LGR2 antagonist project, cell-based, plate reader, cherry pick (AID 743444).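 Note: transfected HEK 293 cells stimulated with alpha-MSH peptide; potency of inhibitors of the alpha-MSH evoked signal.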 In kind it is functional. (In general: Counterscreens check selectivity or assay interference.)
Experiment [6] is described as follows: HEK293 cell cytotoxicity, dose response, cytotoxicity control, plate reader, cherry-picked samples (AID 743446). In kind it is functional, cell-based.
Experiment [7] is described as follows: HepG2 cell cytotoxicity, dose response, cytotoxicity control, plate reader, cherry-pick, antagonist series (AID 743416). It is filed as functional, cell-based.
Experiment [8] can be described thus: inhibitors of fibronectin matrix deposition, dose response, AH1F cells, Alexa488-FN fluorescence, cherry-picks (AID 1035475). In kind it is functional, cell-based.
Experiment [9] can be described thus: A549 cell cytotoxicity, dose response, cytotoxicity control, plate reader, cherry-pick, antagonist series (AID 743412). In kind it is functional, cell-based.
Experiment [10] can be described thus: IGROV1 ovarian cancer cell cytotoxicity, dose response, PAX8 inhibitor project, plate reader, dry powder samples (AID 743043). In kind it is functional, cell-based. As to conditions: IGROV-1.
A short description of experiment [11]: cytotoxicity in OVCAR8 ovarian cancer cells, dose response, PAX8 project, cell-based, plate reader, dry powder samples (AID 743197). It is filed as functional. As to conditions: OVCAR-8.
Another experiment has as its target Paired box protein Pax-8 (Homo sapiens, UniProt Q06710). The experiment in a line: inhibitors of PAX8-driven TPO luciferase reporter, dose response, RMG-I cells, cherry-pick (AID 687027).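 Note: luciferase reporter driven by Pax8 target thyroperoxidase promoter measured by SteadyGlo luminescence.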 In kind it is functional, cell-based.
Experiment [12] in a line: NIH:OVCAR-3 ovarian cancer cell cytotoxicity, dose response, PAX8 inhibitor project, plate reader, dry powder samples (AID 743044). It is filed as functional, cell-based.
Experiment [13] in a line: IOSE-T80 ovarian epithelial cell cytotoxicity, dose response, cytotoxicity control for PAX8 inhibitor project, plate reader, dry powder samples (AID 743045). In kind it is functional, cell-based.
The nature of experiment [14]: inhibitors of CMV-promoter luciferase reporter, dose response, counter-screen for Pax8 inhibitor project, cell-based, HEK293, luminescence, dry powder (AID 743020). In kind it is functional.
A short description of experiment [15]: PAX2 cell-based inhibition, dose response, selectivity assay for PAX8 inhibitor project, plate reader, dry powder samples (AID 743048).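 Note: HEK293 cells carrying a WT1 promoter luciferase reporter driven by expressed Pax2; potency is for inhibition of Pax2 driven reporter signal.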 It is filed as functional.
Experiment [16] can be described thus: A2780 ovarian cancer cell cytotoxicity, dose response, cytotoxicity control, plate reader, dry powder samples (AID 743046). In kind it is functional, cell-based.
Experiment [17] in a line: cytotoxicity in COV434 cells, dose response, cytotoxicity control for PAX8 inhibitor project, cell-based, plate reader, dry powder, SA7 (AID 743145). It is filed as functional.
Experiment [18] can be described thus: cytotoxicity dependent on PAX8, dose response, cell-based, plate reader, dry powder (AID 743049). In kind it is functional.
A short description of experiment [19]: cytotoxicity in COV362 ovarian cancer cells, dose response, cytotoxicity control for PAX8 inhibitor project, cell-based, plate reader, dry powder, SA12 (AID 743144). In kind it is functional.
Experiment [20] is described as follows: cytotoxicity in OVCAR4 cells, dose response, cytotoxicity control for PAX8 inhibitor project, cell-based, plate reader, dry powder, SA11 (AID 743150). It is filed as functional. The following applies: OVCAR-4.
A short description of experiment [21]: cytotoxicity in OV-90 ovarian cancer cells, dose response, PAX8 inhibitor project, cell-based, plate reader, dry powder, SA8 (AID 743149). It is filed as functional.
Experiment [22] is described as follows: HEK293T cell cytotoxicity, dose response, cytotoxicity control for HIV Vif inhibitor project, cherry-picks (AID 652208). In kind it is functional, cell-based.
The target in experiment [23] is ADP-ribosylation factor GTPase-activating protein 1 (Rattus norvegicus, UniProt Q62848). The experiment in a line: Fluorescence polarization-based biochemical high throughput dose response screening assay to identify inhibitors of ADP-ribosylation factor GTPase activating protein 1 (ARFGAP1). In kind it is functional. (In general: In fluorescence polarisation assays a small probe gives low polarisation when free and higher when bound to something large.)

For experiment [24], the target named is 1-phosphatidylinositol 4,5-bisphosphate phosphodiesterase gamma-1 (Homo sapiens, UniProt P19174). The experiment in a line: Counterscreen for inhibitors of phospholipase C isozymes (PLC-B3): Fluorescence-based biochemical high throughput dose response assay to identify inhibitors of phospholipase C isozymes (PLC-gamma1).
Experiment [25] concerns the target 1-phosphatidylinositol 4,5-bisphosphate phosphodiesterase beta-3 (Homo sapiens, UniProt Q01970). The experiment is described as follows: Fluorescence-based biochemical high throughput dose response assay to identify inhibitors of phospholipase C isozymes (PLC-B3).
Experiment [26] in a line: inhibitors of TNFa-stimulated NF-kB luciferase reporter, dose response, selectivity assay for EBV LMP1 NF-kB inhibitor project, HEK293 LMP1 reporter cells, dry powder, set 2 (AID 624369). It is filed as functional.
Experiment [27] in a line: LMP1-driven NF-kB reporter inhibition, dose response, cell-based, luciferase reporter, luminescence, dry powder, set 2 (AID 624376). It is filed as functional.
Experiment [28] concerns the target Disintegrin and metalloproteinase domain-containing protein 17 (Homo sapiens, UniProt P78536). The experiment is described as follows: ADAM17 protease inhibitors, dose response, counter-screen for ADAM10 exosite inhibitor project, biochemical, quenched FRET substrate (AID 743253).
The nature of experiment [29]: Luminescence Cell-Based Dose Retest to Confirm Inhibitors of Cancer Stem Cells. [Related pubchem assays (depositor defined):AID2717, AID2721]. It is filed as functional. The following applies: Homo sapiens.
The nature of experiment [30]: ADAM10 inhibitors, peptide cleavage, dose response, biochemical, QFRET (AID 743254).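 Note: ADAM10 enzyme with the DM2 quenched FRET peptide as substrate; EDANS fluorescence gain as the protease cuts the substrate; inhibitor potency against ADAM10 proteolytic activity.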

The source made the active and inactive calls.

Sequence of fMet-Leu-Phe receptor (P21462 whole entry): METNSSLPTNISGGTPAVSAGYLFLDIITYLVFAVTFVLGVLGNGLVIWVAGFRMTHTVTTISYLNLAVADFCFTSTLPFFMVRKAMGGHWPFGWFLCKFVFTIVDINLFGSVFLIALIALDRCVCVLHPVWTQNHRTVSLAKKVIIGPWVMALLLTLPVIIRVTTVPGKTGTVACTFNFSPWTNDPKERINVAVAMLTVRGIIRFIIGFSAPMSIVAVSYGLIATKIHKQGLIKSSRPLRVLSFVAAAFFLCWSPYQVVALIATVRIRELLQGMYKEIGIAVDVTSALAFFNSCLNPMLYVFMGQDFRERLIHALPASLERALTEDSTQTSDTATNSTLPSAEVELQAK
Sequence of ADP-ribosylation factor GTPase-activating protein 1 (Q62848 whole entry): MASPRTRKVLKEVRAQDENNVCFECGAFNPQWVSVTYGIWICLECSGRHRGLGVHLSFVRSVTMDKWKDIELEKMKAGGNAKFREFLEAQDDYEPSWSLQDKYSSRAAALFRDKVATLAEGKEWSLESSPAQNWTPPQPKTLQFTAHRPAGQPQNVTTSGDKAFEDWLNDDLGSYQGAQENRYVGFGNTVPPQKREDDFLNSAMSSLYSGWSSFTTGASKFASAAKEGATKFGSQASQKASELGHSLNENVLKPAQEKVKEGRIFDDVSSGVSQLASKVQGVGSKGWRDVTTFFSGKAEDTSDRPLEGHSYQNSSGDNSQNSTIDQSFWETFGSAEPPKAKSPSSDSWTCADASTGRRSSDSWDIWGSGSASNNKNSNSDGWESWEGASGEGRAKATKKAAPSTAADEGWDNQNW
Sequence of Paired box protein Pax-8 (Q06710 whole entry): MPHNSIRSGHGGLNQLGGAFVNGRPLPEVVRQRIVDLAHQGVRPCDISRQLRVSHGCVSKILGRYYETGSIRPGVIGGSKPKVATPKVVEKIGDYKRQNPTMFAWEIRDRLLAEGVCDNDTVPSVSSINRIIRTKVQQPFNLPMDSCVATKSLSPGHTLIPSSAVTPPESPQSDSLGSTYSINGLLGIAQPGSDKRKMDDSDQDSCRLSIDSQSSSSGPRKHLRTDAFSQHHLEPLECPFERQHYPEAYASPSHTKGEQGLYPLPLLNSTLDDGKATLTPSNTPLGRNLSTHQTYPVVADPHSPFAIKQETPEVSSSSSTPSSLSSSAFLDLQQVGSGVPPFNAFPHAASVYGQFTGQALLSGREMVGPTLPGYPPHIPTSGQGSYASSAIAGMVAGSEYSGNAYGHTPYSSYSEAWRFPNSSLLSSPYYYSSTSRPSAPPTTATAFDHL
Sequence of Protein Wnt-3a (P27467 whole entry): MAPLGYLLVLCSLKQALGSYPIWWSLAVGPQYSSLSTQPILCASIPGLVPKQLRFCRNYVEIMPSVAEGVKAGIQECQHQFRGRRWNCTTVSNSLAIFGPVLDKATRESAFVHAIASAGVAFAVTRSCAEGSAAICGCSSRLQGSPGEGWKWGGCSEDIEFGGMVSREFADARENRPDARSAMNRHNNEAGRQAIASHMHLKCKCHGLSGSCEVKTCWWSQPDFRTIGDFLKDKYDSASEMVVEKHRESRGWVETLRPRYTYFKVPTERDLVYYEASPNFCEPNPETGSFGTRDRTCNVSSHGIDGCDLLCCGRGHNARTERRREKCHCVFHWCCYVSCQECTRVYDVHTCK
Sequence of Disintegrin and metalloproteinase domain-containing protein 17 (P78536 whole entry, the tested form may be a part): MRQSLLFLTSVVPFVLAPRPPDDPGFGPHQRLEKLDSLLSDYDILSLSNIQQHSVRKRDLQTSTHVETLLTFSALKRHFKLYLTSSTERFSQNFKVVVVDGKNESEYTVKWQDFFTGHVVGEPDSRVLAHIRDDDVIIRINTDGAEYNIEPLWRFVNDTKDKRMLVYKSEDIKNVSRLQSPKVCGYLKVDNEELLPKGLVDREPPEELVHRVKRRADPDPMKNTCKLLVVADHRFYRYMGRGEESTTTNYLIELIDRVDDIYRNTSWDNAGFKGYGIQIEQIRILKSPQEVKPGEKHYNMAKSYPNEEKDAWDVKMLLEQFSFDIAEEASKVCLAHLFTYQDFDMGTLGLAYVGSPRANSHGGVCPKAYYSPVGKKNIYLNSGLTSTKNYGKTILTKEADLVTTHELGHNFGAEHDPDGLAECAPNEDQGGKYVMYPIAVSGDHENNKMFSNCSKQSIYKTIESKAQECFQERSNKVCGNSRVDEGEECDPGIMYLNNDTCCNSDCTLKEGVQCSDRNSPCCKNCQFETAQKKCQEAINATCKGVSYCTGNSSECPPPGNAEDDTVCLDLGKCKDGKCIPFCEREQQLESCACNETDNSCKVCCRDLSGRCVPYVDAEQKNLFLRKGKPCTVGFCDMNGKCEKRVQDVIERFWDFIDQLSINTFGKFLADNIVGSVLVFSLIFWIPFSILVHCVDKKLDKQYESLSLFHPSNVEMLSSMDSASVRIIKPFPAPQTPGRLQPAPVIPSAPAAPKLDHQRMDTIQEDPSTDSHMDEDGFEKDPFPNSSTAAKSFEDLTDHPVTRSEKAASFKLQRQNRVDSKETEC
Sequence of 1-phosphatidylinositol 4,5-bisphosphate phosphodiesterase beta-3 (Q01970 whole entry): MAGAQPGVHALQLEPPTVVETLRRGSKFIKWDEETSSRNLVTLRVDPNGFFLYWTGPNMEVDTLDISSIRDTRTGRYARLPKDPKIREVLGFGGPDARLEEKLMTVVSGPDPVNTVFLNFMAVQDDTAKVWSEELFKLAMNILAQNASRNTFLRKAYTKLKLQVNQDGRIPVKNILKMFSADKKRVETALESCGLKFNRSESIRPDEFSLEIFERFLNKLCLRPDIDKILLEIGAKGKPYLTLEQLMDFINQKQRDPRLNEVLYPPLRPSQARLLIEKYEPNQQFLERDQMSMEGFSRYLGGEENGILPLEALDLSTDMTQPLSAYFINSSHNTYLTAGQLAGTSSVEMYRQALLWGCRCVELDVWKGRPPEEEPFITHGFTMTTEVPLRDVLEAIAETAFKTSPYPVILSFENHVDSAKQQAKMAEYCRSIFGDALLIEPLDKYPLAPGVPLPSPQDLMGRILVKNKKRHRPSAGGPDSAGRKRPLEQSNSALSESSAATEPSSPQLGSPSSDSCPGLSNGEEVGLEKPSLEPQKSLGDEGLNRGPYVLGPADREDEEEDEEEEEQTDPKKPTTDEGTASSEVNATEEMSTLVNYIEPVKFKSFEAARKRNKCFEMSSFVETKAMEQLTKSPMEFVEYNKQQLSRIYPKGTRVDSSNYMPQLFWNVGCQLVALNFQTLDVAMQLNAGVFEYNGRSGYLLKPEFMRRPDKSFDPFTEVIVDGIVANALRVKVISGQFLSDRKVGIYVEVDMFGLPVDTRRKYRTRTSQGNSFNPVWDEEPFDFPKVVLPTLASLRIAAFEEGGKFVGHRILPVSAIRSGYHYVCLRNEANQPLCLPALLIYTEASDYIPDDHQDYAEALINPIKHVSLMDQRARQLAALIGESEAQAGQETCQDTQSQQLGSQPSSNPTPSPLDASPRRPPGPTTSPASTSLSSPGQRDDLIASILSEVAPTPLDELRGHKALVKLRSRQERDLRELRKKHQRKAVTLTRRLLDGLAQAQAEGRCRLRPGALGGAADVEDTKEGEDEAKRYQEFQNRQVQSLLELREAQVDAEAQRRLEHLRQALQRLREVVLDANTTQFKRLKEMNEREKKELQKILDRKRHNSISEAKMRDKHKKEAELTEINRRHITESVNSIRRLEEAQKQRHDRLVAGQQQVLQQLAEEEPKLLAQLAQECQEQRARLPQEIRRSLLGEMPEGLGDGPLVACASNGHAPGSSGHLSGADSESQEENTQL
Sequence of 1-phosphatidylinositol 4,5-bisphosphate phosphodiesterase gamma-1 (P19174 whole entry): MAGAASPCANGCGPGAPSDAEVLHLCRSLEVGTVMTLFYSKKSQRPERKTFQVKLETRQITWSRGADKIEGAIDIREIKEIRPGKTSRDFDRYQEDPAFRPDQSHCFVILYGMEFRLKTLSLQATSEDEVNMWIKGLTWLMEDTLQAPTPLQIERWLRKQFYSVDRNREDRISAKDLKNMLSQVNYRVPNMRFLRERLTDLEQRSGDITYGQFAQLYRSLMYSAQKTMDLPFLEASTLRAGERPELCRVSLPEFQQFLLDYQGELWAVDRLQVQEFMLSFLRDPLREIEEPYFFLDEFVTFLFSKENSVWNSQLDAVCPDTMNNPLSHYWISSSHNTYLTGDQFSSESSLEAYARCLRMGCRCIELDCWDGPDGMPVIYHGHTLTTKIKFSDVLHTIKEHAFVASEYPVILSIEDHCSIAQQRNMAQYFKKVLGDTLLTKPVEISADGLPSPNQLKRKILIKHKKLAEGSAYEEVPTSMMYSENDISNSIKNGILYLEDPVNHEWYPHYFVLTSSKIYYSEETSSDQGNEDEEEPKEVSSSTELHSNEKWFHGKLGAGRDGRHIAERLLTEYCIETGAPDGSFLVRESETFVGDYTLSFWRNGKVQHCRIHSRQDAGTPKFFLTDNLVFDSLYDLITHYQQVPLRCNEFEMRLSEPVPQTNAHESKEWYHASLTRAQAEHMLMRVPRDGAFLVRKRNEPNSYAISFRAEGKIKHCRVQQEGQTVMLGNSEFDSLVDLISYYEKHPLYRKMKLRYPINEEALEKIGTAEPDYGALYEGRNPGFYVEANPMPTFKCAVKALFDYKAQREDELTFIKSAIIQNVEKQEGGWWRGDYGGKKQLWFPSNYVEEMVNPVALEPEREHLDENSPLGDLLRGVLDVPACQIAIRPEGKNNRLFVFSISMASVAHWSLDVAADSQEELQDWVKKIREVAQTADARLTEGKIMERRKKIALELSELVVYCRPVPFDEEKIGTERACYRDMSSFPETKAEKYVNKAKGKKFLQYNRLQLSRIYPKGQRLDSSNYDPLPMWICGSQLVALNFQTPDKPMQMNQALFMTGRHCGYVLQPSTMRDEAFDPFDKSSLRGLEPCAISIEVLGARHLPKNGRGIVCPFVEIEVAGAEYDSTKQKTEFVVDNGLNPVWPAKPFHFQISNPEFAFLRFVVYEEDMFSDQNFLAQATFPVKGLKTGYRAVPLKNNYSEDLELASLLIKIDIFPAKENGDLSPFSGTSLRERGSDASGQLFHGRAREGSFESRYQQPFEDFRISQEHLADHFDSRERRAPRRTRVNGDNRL

In the case of `N#Cc1cccc(C(=O)Nc2cc(N3CCCCC3)ncn2)c1`, the IC50 on Protein Wnt-3a was > 21.8 µM (inactive).

In the case of `CCOc1cc(C2C(C(=O)c3ccco3)=C(O)C(=O)N2CCc2ccccc2)ccc1O` (configuration not stated), the Ki on fMet-Leu-Phe receptor was > 66.7 µM (inactive).

With `C[C@@H]1CN([C@H](C)CO)C(=O)c2cccc(NC(=O)Nc3ccc(C(F)(F)F)cc3)c2O[C@@H]1CN(C)C(=O)Nc1cccc2ccccc12`, the AC50 in experiment [1] was 24.3 µM (active); in experiment [2], 32.5 µM (active); in experiment [3] it was 19.4 µM (active); in experiment [4] it was 29.2 µM (active); in experiment [5], 14.3 µM (active); in experiment [6], 14.8 µM (active). In addition, the AC50 is 19.6 µM (active) in experiment [7], 7.47 µM (active) in [8] and 16.4 µM (active) in experiment [9].

With `C[C@@H]1CN([C@H](C)CO)C(=O)c2cc(NS(=O)(=O)c3ccccc3)ccc2O[C@@H](C)CCCCO[C@H]1CN(C)Cc1ccc(C(F)(F)F)cc1`, the AC50 is 35.8 µM (active) in experiment [10]; 17.6 µM (active) in experiment [11]; 5.82 µM (active) at Paired box protein Pax-8; 15.7 µM (active) in experiment [12]; 55.1 µM (active) in experiment [13]; 29.8 µM (active) in [14].

`COc1ccc(OC)c2sc(N(CCCN(C)C)C(=O)CCS(=O)(=O)c3ccccc3)nc12`: the AC50 in experiment [15] was 56.3 µM (active); in [16] it was 40 µM (active); in [10], 25.5 µM (active); in [17], 5.66 µM (active); in experiment [18], 13.2 µM (active); in experiment [12], 7.2 µM (active). Also, the AC50 in [13] was 14.5 µM (active); in [19] it was 12 µM (active); in experiment [20], 22.8 µM (active); in experiment [21], 17.3 µM (active).

As for `COc1ccc(C2C3=C(CCCC3=O)N(CC(=O)O)C3=C2C(=O)CCC3)cc1`, the AC50 in “cells” was 5.91 µM (active).

For `COc1ccc(-n2nc(C(=O)NCC(=O)Nc3cccc(Cl)c3)c3ccccc3c2=O)cc1OC`, the AC50 in experiment [22] was 17.4 µM (active). Further, in experiment [23], the IC50 was 83.9 µM (inactive).

`CCCCN=C(S)NNC(=O)c1csc(CC)c1`: the IC50 in experiment [24] and in experiment [25] was > 122 µM (inactive) throughout.

As for `O=C(C[C@@H]1C[C@H]2c3cc(NS(=O)(=O)c4ccc(F)cc4)ccc3O[C@H]2[C@H](CO)O1)NCc1ccc(Oc2ccccc2)cc1`, the AbsAC35 was determined as 42.88 µM in experiment [26] and 65.62 µM in [27].

As to `Cc1ccc(S(=O)(=O)Nc2ccc(-c3csc(-c4ccccc4)n3)cc2)cc1`, the IC50 in experiment [28] and in [30] was > 69.5 µM (inactive) each time. In addition, in experiment [29], the AC50 was 3.5 µM (active).
